Test results taken from patent EP1518554A1, “Pharmaceutical composition for the treatment of hyperhomocysteinemia” (Medosan Industrie Biochimiche Riunite S.r.l., priority 2003, dated 2005).

Tested on: homocysteine ematic level
Assay: Randomised clinical study in patients with hyperhomocysteinemia; plasma homocysteine determined by immunoenzymatic test (EIA) at enrolment and after 30 days of treatment
Format: in vivo
Source text: Assessments about the pharmacological effectiveness of the composition according to the present invention have been carried out according to the following study protocol.
The experimentation has examined a total number of 60 patients assigned to one of the two treatment groups (30 patients to group A and 30 patients to group B).
• Patients of both sexes • Age older than 18 • Homocysteinemia level >15 µmol/l
• Patients suffering from diseases interfering with the homocysteine dosage • Patients in therapy with drugs interfering with the homocysteine metabolism (isoniazid, antiepileptic, methotrexate) • Subjects with ascertained individual hypersensitivity towards the active principles and/of the excipients of the product • Women during pregnancy or puerperium • Patients suffering from diabetes mellitus […]
The obtained data have been assessed statistically withe Student's t test and the significance is expressed as follows: P<0.05*; P<0.01**; P<0.001***

Substance: arginine glutamate
- reduction in the homocysteine plasmatic levels (general statement of the applicant's experimental data, dose and duration not stated at the place): 10-15%
- reduction in the homocysteine plasmatic values (patients with homocysteinemia >15 µmol/l, 10-ml small bottle which can be drunk, twice a day for 30 days, 30 patients per group, Student's t test (composition 9 p≤0.001; arginine glutamate only p≤0.01)): 12%
